Experiments:
5-HT1B receptor [1] = molecular target: T1, 5-HT1B receptor (Homo sapiens, UniProt P28222); assay: saturation binding studies, 5-HT1B receptor; details: read-out: Kd of radioligand (used in calculation of Ki values)
Description: Frozen membrane preparations were thawed, homogenized with an Ultra-Turrax and mixed with SPA beads (YSI coated WGA, GE Healthcare/Amersham, Buckinghamshire, UK) in assay buffer containing 50 mM Tris-Base, 4 mM MgCl2, 4 mM CaCl2 (only 5-HT1B), 1 mM EDTA, and adjusted to pH 7.4 with HCl. The beads/membrane solution, final concentration 100 pM receptors for 5-HT1A, 300 pM receptors for 5-HT1B and 0.5 mg SPA beads/well, was pre-incubated in room temperature with stirring for 30-60 min. […] Five (log interval, 10 μM to 1 nM, final concentration) or ten serial dilutions (½-log interval, 0.1 μM to 0.0032 nM, final concentration) of compounds were prepared in DMSO from 10 mM stock solutions. The binding assays were performed in 384-well plates in a final volume of 90 μL/well with the following additions: 9 μL binding buffer; 1 μL compound/DMSO/nonspecific; 20 μL radioligand; and 60 μL beads/membrane mixture. Non-specific binding was defined by using 10 μM WAY100635 for 5-HT1A and 10 μM Methiothepin for 5-HT1B. The assay plates were incubated for 4 hours where after the plates are counted in a Wallac 1450 Microbeta Trilux counter (PerkinElmer LifeScience, US) or similar. Data from the experiments were analyzed using a four parameter logistic equation as follows: Y=Bottom+(Top−Bottom)/1+10^(Log EC50-X)nH.

5-HT1B receptor [2] = molecular target: T1, 5-HT1B receptor; assay: 5-HT1B receptor competition binding assay (SPA, [3H]-GR125743)
Description: (§1) These assays were be used with some modifications:
(§2) For the binding assay stably transfected chinese hamster ovary (CHO) cell lines expressing 5-HT1A receptors or 5-HT1B receptors were harvested by centrifugation at 300×g for 10 min and resuspended in 10 mM Tris-HCl, 5 mM EDTA at pH 7.4. The cells were pooled, recentrifuged and resuspended before homogenisation using a Dounce homogeniser (“type B”). Cell membranes were centrifuged at 48 000×g for 10 min and then resuspended in harvesting buffer using an Ultra-Turrax T8 (IKA Labortechnik, Germany), aliquots were stored frozen in −70° C.
(§3) Frozen membrane preparations were thawed, homogenized with an Ultra-Turrax and mixed with SPA beads (YSI coated WGA, GE Healthcare/Amersham, Buckinghamshire, UK) in assay buffer containing 50 mM Tris-Base, 4 mM MgCl2, 4 mM CaCl2 (only 5-HT1B), 1 mM EDTA, and adjusted to pH 7.4 with HCl. The beads/membrane solution, final concentration 100 pM receptors for 5-HT1A, 300 pM receptors for 5-HT1B and 0.5 mg SPA beads/well, was pre-incubated in room temperature with stirring for 30-60 min. […] The assay plates were incubated for 4 hours where after the plates are counted in a Wallac 1450 Microbeta Trilux counter (PerkinElmer LifeScience, US) or similar. Data from the experiments were analyzed using a four parameter logistic equation as follows: Y=Bottom+(Top−Bottom)/1+10^(Log EC50-X)nH.

5-HT1A receptors = molecular target: T2, 5-HT1A receptors (Homo sapiens, UniProt P08908); assay: 5-HT1A receptor competition binding assay (SPA, [3H]-8-OH-DPAT)
T2 sequence (P08908 1-422): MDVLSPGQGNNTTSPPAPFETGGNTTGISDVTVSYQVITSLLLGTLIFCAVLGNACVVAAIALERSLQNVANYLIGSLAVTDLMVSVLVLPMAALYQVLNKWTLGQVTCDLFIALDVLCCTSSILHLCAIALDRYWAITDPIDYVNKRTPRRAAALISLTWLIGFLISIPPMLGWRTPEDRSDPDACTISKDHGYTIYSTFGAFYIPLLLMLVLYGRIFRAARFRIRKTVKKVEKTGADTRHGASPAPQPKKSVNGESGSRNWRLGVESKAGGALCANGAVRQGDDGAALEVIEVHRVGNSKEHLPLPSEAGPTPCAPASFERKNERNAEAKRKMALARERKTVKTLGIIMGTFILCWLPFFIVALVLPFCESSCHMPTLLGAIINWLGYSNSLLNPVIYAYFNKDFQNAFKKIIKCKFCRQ
Description: as §1, §2, §3

T1 sequence (P28222 whole entry): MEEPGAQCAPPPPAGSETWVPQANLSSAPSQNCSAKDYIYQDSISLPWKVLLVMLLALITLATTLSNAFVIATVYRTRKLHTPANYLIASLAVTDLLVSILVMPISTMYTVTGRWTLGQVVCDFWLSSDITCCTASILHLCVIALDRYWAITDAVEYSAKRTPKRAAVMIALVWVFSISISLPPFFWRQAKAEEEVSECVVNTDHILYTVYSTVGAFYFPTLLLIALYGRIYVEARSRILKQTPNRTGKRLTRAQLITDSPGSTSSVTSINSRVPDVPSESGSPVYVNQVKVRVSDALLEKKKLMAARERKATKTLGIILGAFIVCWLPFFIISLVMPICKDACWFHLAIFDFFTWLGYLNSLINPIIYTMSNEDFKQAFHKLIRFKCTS

Row | Kd (5-HT1B receptor [1]) | Ki (5-HT1B receptor [2]) | Ki (5-HT1A receptors) | SMILES
1 | 870 pM | – | – | COc1ccc(NC(=O)c2ccc(-c3ccncc3)c(C)c2)cc1N1CCN(C)CC1 [[^3H]-GR125743]
2 | – | 650 pM | 70 pM | CNC(=O)c1cc2c(N3CCN(CCc4cccc5c4CCC(=O)N5C)CC3)cccc2o1 [compound of formula (I), N-Methyl-4-[4-[2-(1-methyl-2-oxo-3,4-dihydroquinolin-5-yl)ethyl]piperazin-1-yl]benzofuran-2-carboxamide]

— patent US9012457B2, “2-carboxamide-4-piperazinyl-benzofuran derivative” (AstraZeneca AB, priority 2010, dated 2015)
